Assay results reported in patent US20160162632A1, “METHOD OF SCREENING REACTIONS OR BIOLOGICAL PATHWAYS INDUCED BY COMPOUND” (Samsung Electronics Co., Ltd., priority 2014, published 2016).

Tested on: biochemical pathways with which genes with a change in expression level are associated
Test: Selection among predicted reactions using differentially expressed genes (DEGs) by dapsone and DAVID pathway annotation
Assay type: cell-based
Details: reaction included in the "arginine and prolyl metabolism" pathway from DEGs; FIG. 7
Text: Genes that are differentially expressed (differentially expressed genes, DEGs) by dapsone were experimentally determined. Information about biochemical pathways to which the DEGs are involved was obtained by a functional annotation tool of bioinformatics resources (DAVID Bioinformatics Resources version 6.7 operated by the National Institute of Allergy and Infectious Diseases ([…]), Bethesda, Md.; see Huang D W, Sherman B T, Lempicki R A. “Systematic and integrative analysis of large gene lists using DAVID Bioinformatics Resources,” Nature Protoc. 2009; 4(1):44-57; Huang D W, Sherman B T, Lempicki R A. “Bioinformatics enrichment tools: paths toward the comprehensive functional analysis of large gene lists,” Nucleic Acids Res. 2009; 37(1):1-13).
The term “Term” refers to a pathway related to a gene list. The terms “Genes” and “Count” denotes the numbers of genes included in the corresponding terms. The length of the square in the column for “Genes” indicates the number of genes included in the corresponding terms. % refers to a ratio of genes included in the corresponding terms to genes input as DEGs of dapson. These pathways were identified in terms of whether each of the predicted reaction as described in Example 2.1. is included therein.

Nc1ccc(S(=O)(=O)c2ccc(N)cc2)cc1 [dapsone, 4,4′-diaminodiphenylsulfone]
enzyme reaction determined as induced in a cell by treatment: ATP:creatine N-phosphotransferase reaction
